Laboratory results from patent US20260078114A1, “COMPOUND USED AS INHIBITOR OF CDK4 KINASE AND USE THEREOF” (TYK MEDICINES, INC., priority 2022, published 2026).

Assays:
[1] = tested on: ovarian cancer cell A2780; test: Cellular antiproliferative assay (MTT, 5 days), A2780; assay type: cell-based, human; conditions: Homo sapiens, 120 h, A2780 cells, 5 days incubation
Description: (§1) Human breast cancer cell MCF-7, ovarian cancer cell A2780, human mantle cell lymphoma cell JEKO-1. DMEM medium (Bio-Channel), DMSO (dimethyl sulfoxide), MTT (thiazolyl blue), 0.25% EDTA-Tripsin (tryptic digest), 1×PBS (phosphate buffer, PH7.2), 96-well plate (Corning), fetal bovine serum (FBS), 10,000 U/mL penicillin-G/streptomycin, high-speed cryo-centrifuge (EPPENDORF 5810R), enzyme-linked immunoassay (Tecan Spark).
(§2) • A) Tumor cells were cultured in DMEM (high sugar with 10% FBS and 100 U/mL penicillin-G/streptomycin) at 37° C., 5% CO2 and saturated humidity until 80-90% dense. • B) Removed the culture medium from 10 cm Petri dishes; • C) Rinsed the cells once with 10 ml 1×PBS; • D) Added 4 ml 0.25% EDTA-Tripsin into 37° C., 5% CO2 incubator for trypsin digestion for 5 minutes, transferred to 15 ml centrifuge tube, centrifuged at 200 g for 5 minutes, discarded the supernatant to get cell precipitate; • E) Resuspended with 4 ml DMEM medium, counted and adjust to 50,000 cells/ml. • F) Added cell suspension to 96-well plate with 100 μL per well volume and incubated overnight at 37° C., 5% CO2 incubator.
(§3) • A) Preparation of gradient dilution solution of the tested compound: the test compound was configured into 1 mM reservoir solution.
(§4) • A) Taking the cell culture plate and adding 10 μL of 5 mg/ml MTT in the biosafety cabinet; • B) Putting the cell culture plate back into the incubator and continued incubation for 3 hours; • C) Taking the cell culture plate and removing the culture medium, adding 100 μL isopropanol (containing 0.4 mM HCl, 0.1% NP-40), and shaking the bed at room temperature for 30 min; and • D) Determining the absorbance value by selecting 570 nm on a TECAN enzyme-linked immunoassay detector.
(§5) The % Cell Viability was calculated using the following formula:
(§6) [formula] • Lum_HC: 0.1% DMSO control cell reading • Lum_Sample: cell readings with compound added • Lum_LC: Blank medium reading

[2] = tested on: Human breast cancer cell MCF-7; test: Cellular antiproliferative assay (MTT, 5 days), MCF-7; assay type: cell-based; conditions: Homo sapiens, MCF7, 120 h, MCF-7 cells, 5 days incubation
Description: as §1, §2, §3, §4, §5, §6

[3] = tested on: human mantle cell lymphoma cell JEKO-1; test: Cellular antiproliferative assay (MTT, 5 days), JEKO-1; assay type: cell-based; conditions: Homo sapiens, 120 h, JEKO-1 cells, 5 days incubation
Description: as §1, §2, §3, §4, §5, §6

Row | SMILES | IC50 [1] | IC50 [2] | IC50 [3]
1 | CC1CCN(C)c2nc3c(F)cc(-c4nc(N[C@@H]5CCOC[C@H]5O)ncc4Cl)cc3n21 (mixture of isomers) [TB-44, (3S,4R)-4-((5-chloro-4-(9-fluoro-1,4-dimethyl-1,2,3,4-tetrahydrobenzo[4,5]imidazo[1,2-a]pyrimidin-7-yl)pyrimidin-2-yl)amino)tetrahydro-2H-pyran-3-ol] | ≤ 500 nM | ≤ 500 nM | ≤ 500 nM
2 | CC(C)n1c(N2CCOC2=O)nc2c(F)cc(-c3nc(N[C@@H]4CCOC[C@H]4O)ncc3Cl)cc21 [TA-55] | ≤ 500 nM | ≤ 500 nM | ≤ 500 nM
3 | CC(C)n1c(N(C)C)nc2c(F)cc(-c3nc(N[C@@H]4CCOC[C@H]4O)ncc3Cl)cc21 [TB-1] | ≤ 500 nM | ≤ 500 nM | ≤ 500 nM
4 | CC(C)n1c(N(C)C)nc2c(F)cc(-c3nc(NC4CCOCC4)ncc3Cl)cc21 [TB-2, 6-(5-chloro-2-((tetrahydro-2H-pyran-4-yl)amino)pyrimidin-4-yl)-4-fluoro-1-isopropyl-N,N-dimethyl-1H-benzo[d]imidazol-2-amine] | ≤ 500 nM | ≤ 500 nM | ≤ 500 nM
5 | CC(C)n1c(N(C)C)nc2c(F)cc(-c3nc(NC4CCN(S(C)(=O)=O)CC4)ncc3Cl)cc21 [TB-3, 6-(5-chloro-2-((1-(methylsulfonyl)piperidin-4-yl)amino)pyrimidin-4-yl)-4-fluoro-1-isopropyl-N,N-dimethyl-1H-benzo[d]imidazol-2-amine] | ≤ 500 nM | ≤ 500 nM | ≤ 500 nM
6 | CC(C)n1c(N(C)C)nc2c(F)cc(-c3nc(N[C@H]4CC[C@H](NS(C)(=O)=O)CC4)ncc3Cl)cc21 [TB-5] | ≤ 500 nM | ≤ 500 nM | ≤ 500 nM
7 | CC(C)n1c(N2CC[C@H](O)C2)nc2c(F)cc(-c3nc(N[C@@H]4CCOC[C@H]4O)ncc3Cl)cc21 [TB-6, (S)-1-(6-(5-chloro-2-(((3S,4R)-3-hydroxytetrahydro-2H-pyran-4-yl)amino)pyrimidin-4-yl)-4-fluoro-1-isopropyl-1H-benzo[d]imidazol-2-yl)pyrrolidin-3-ol] | ≤ 500 nM | 500 to 2000 nM | ≤ 500 nM
8 | CC(C)n1c(N2CC[C@@H](O)C2)nc2c(F)cc(-c3nc(N[C@@H]4CCOC[C@H]4O)ncc3Cl)cc21 [TB-7, (R)-1-(6-(5-chloro-2-(((3S,4R)-3-hydroxytetrahydro-2H-pyran-4-yl)amino)pyrimidin-4-yl)-4-fluoro-1-isopropyl-1H-benzo[d]imidazol-2-yl)pyrrolidin-3-ol] | ≤ 500 nM | ≤ 500 nM | ≤ 500 nM
9 | COC(=O)N(C)c1nc2c(F)cc(-c3nc(N[C@@H]4CCOC[C@H]4O)ncc3Cl)cc2n1C(C)C [TB-8, methyl (6-(5-chloro-2-(((3S,4R)-3-hydroxytetrahydro-2H-pyran-4-yl)amino)pyrimidin-4-yl)-4-fluoro-1-isopropyl-1H-benzo[d]imidazol-2-yl)(methyl)carbamate] | ≤ 500 nM | 500 to 2000 nM | ≤ 500 nM
10 | CC(C)n1c(N(C)CCO)nc2c(F)cc(-c3nc(N[C@@H]4CCOC[C@H]4O)ncc3Cl)cc21 [TB-9, (3S,4R)-4-((5-chloro-4-(4-fluoro-2-((2-hydroxyethyl)(methyl)amino)-1-isopropyl-1H-benzo[d]imidazol-6-yl)pyrimidin-2-yl)amino)tetrahydro-2H-pyran-3-ol] | ≤ 500 nM | 500 to 2000 nM | ≤ 500 nM
11 | CC(C)n1c(N2CCCC2)nc2c(F)cc(-c3nc(N[C@@H]4CCOC[C@H]4O)ncc3Cl)cc21 [TB-11, (3S,4R)-4-((5-chloro-4-(4-fluoro-1-isopropyl-2-(pyrrolidin-1-yl)-1H-benzo[d]imidazol-6-yl)pyrimidin-2-yl)amino)tetrahydro-2H-pyran-3-ol] | ≤ 500 nM | ≤ 500 nM | ≤ 500 nM
12 | CC(C)n1c(N(C)C)nc2c(F)cc(-c3nc(N[C@@H]4CCN(S(C)(=O)=O)C[C@H]4O)ncc3Cl)cc21 [TB-13, (3R,4R)-4-((5-chloro-4-(2-(dimethylamino)-4-fluoro-1-isopropyl-1H-benzo[d]imidazol-6-yl)pyrimidin-2-yl)amino)-1-(methylsulfonyl)piperidin-3-ol] | ≤ 500 nM | ≤ 500 nM | ≤ 500 nM
13 | CC(C)n1c(N2CC(O)C2)nc2c(F)cc(-c3nc(N[C@@H]4CCOC[C@H]4O)ncc3Cl)cc21 [TB-14, 1-(6-(5-chloro-2-(((38,4R)-3-hydroxytetrahydro-2H-pyran-4-yl)amino)pyrimidin-4-yl)-4-fluoro-1-isopropyl-1H-benzo[d]imidazol-2-yl)azetidin-3-ol] | ≤ 500 nM | ≤ 500 nM | ≤ 500 nM
14 | CCN1CCN(Cc2ccc(Nc3ncc(Cl)c(-c4cc(F)c5nc(N(C)C)n(C(C)C)c5c4)n3)nc2)CC1 [TB-16] | ≤ 500 nM | ≤ 500 nM | ≤ 500 nM
15 | COc1cc(N2CCNCC2)ccc1Nc1ncc(Cl)c(-c2cc(F)c3nc(N(C)C)n(C(C)C)c3c2)n1 [TB-17, 6-(5-chloro-2-((2-methoxy-4-(piperazin-1-yl)phenyl)amino)pyrimidin-4-yl)-4-fluoro-1-isopropyl-N,N-dimethyl-1H-benzo[d]imidazol-2-amine] | 500 to 2000 nM | 500 to 2000 nM | 500 to 2000 nM
16 | CC(C)n1c(N(C)C)nc2c(F)cc(-c3nc(Nc4ccc(N5CCNCC5)cn4)ncc3Cl)cc21 [TB-18, 6-(5-chloro-2-((5-(piperazin-1-yl)pyridin-2-yl)amino)pyrimidin-4-yl)-4-fluoro-1-isopropyl-N,N-dimethyl-1H-benzo[d]imidazol-2-amine] | ≤ 500 nM | ≤ 500 nM | ≤ 500 nM
17 | CC(C)n1c(N2CCCOC2=O)nc2c(F)cc(-c3nc(N[C@@H]4CCOC[C@H]4O)ncc3Cl)cc21 [TB-25] | ≤ 500 nM | 500 to 2000 nM | ≤ 500 nM
18 | CC(C)n1c(N2CCOC2=O)nc2c(F)cc(-c3nc(NC4CCN(S(C)(=O)=O)CC4)ncc3Cl)cc21 [TB-26] | ≤ 500 nM | ≤ 500 nM | ≤ 500 nM
19 | CC(C)n1c(N2CCOC2=O)nc2c(F)cc(-c3nc(NC4CCN(S(C)(=O)=O)CC4)ncc3F)cc21 [TB-28] | ≤ 500 nM | ≤ 500 nM | ≤ 500 nM
20 | CC(C)n1c(N2CCOC2=O)nc2c(F)cc(-c3nc(NC4CCN(S(=O)(=O)C(C)C)CC4)ncc3Cl)cc21 [TB-32] | ≤ 500 nM | ≤ 500 nM | ≤ 500 nM
21 | CC(C)n1c(N2CCOC2=O)nc2c(F)cc(-c3nc(NC4CCN(S(=O)(=O)C5CC5)CC4)ncc3Cl)cc21 [TB-33] | ≤ 500 nM | ≤ 500 nM | ≤ 500 nM
22 | CC(C)n1c(N2CCOC2=O)nc2c(F)cc(-c3nc(NC4CCN(S(C)(=O)=O)CC4(F)F)ncc3Cl)cc21 (stereo not drawn) [TB-35] | ≤ 500 nM | ≤ 500 nM | ≤ 500 nM
23 | CC(C)n1c(N2CCOC2=O)nc2c(F)cc(-c3nc(Nc4ccc(S(=O)(=O)NCCN(C)C)cc4)ncc3Cl)cc21 [TB-38, 4-((5-chloro-4-(4-fluoro-1-isopropyl-2-(2-oxooxazolidin-3-yl)-1H-benzo[d]imidazol-6-yl)pyrimidin-2-yl)amino)-N-(2-(dimethylamino)ethyl)benzenesulfonamide] | ≤ 500 nM | ≤ 500 nM | ≤ 500 nM
24 | CN1CCCn2c1nc1c(F)cc(-c3nc(N[C@@H]4CCOC[C@H]4O)ncc3Cl)cc12 [TB-40] | ≤ 500 nM | ≤ 500 nM | ≤ 500 nM
25 | CN1CCCn2c1nc1c(F)cc(-c3nc(N[C@@H]4CCOC[C@H]4O)ncc3F)cc12 [TB-42, (3S,4R)-4-((5-fluoro-4-(9-fluoro-1-methyl-1,2,3,4-tetrahydrobenzo[4,5]imidazo[1,2-a]pyrimidin-7-yl)pyrimidin-2-yl)amino)tetrahydro-2H-pyran-3-ol] | ≤ 500 nM | ≤ 500 nM | ≤ 500 nM
26 | CN1CCn2c1nc1c(F)cc(-c3nc(N[C@@H]4CCOC[C@H]4O)ncc3Cl)cc12 [TB-45, (3S,4R)-4-((5-chloro-4-(8-fluoro-1-methyl-2,3-dihydro-1H-benzo[d]imidazo[1,2-a]imidazol-6-yl)pyrimidin-2-yl)amino)tetrahydro-2H-pyran-3-ol] | ≤ 500 nM | ≤ 500 nM | ≤ 500 nM
27 | CN1C(=O)CCn2c1nc1c(F)cc(-c3nc(N[C@@H]4CCOC[C@H]4O)ncc3Cl)cc12 [TB-46, 7-(5-chloro-2-(((3S,4R)-3-hydroxytetrahydro-2H-pyran-4-yl)amino)pyrimidin-4-yl)-9-fluoro-1-methyl-3,4-dihydrobenzo[4,5]imidazo[1,2-a]pyrimidin-2(1H)-one] | ≤ 500 nM | ≤ 500 nM | ≤ 500 nM
